Data on 9 compounds can be found in ChEMBL document CHEMBL3132820, “Dinaphthonaphthyridines a class of novel molecules with potent antioxidant and anticancer activity” (Medchemcomm, 2013).

≈ marks a conversion by molar mass, not a printed value.

The first assay deals with AGS. Nature of the assay: Cytotoxicity against human AGS cells after 48 hrs by MTT assay. Type of assay: functional, cell-based.
Conditions: not given
(Tetrazolium dyes change colour on reduction, which living cells bring about.)
For `Cc1nc2c3ccccc3ccc2c2nc3c(ccc4ccccc43)c(-c3ccccc3N)c12`, the IC50 (in general, the midpoint of a concentration-inhibition curve) was determined as 12.1 µM.

With `Cc1nc2c3ccccc3ccc2c2nc3c(ccc4ccccc43)c(-c3cc([N+](=O)[O-])ccc3N)c12`, 17.8 µM corresponded to half-maximal inhibition (IC50).

In turn, `Cc1nc2c3ccccc3ccc2c2nc3c(ccc4ccccc43)c(-c3ccccc3S)c12` yielded an IC50 of 4.07 µM.

For the compound `Cc1nc2c3ccccc3ccc2c2nc3c(ccc4ccccc43)c(-c3cccc4ccccc34)c12`, half-maximal inhibition (IC50) required 12.1 µM.

For `Cc1nc2c3ccccc3ccc2c2nc3c(ccc4ccccc43)c(-c3cccnc3)c12`, half-maximal inhibition (IC50) required 3.96 µM.

The compound `Cc1nc2c3ccccc3ccc2c2nc3c(ccc4ccccc43)c(-c3cc(O)nc4ccccc34)c12` had an IC50 of 15.8 µM.

In turn, `Cc1nc2c3ccccc3ccc2c2nc3c(ccc4ccccc43)c(-c3nccnc3N)c12` had a 50% inhibitory concentration (IC50) of 2.26 µM.

With `COc1cccc2c1C(=O)c1c(O)c3c(c(O)c1C2=O)C[C@@](O)(C(=O)CO)C[C@@H]3O[C@H]1C[C@H](N)[C@H](O)[C@H](C)O1` [DOXORUBICIN], half-maximal inhibition (IC50) was put at 10.9 µM.

The subject of the next assay is HCT-116. Kind of assay: Cytotoxicity against human HCT116 cells after 48 hrs by MTT assay. Format: functional, cell-based. Particulars: HCT-116, 48 h.
Take `Cc1nc2c3ccccc3ccc2c2nc3c(ccc4ccccc43)c(-c3ccccc3N)c12`: the IC50 is 4.76 µM.

As to `Cc1nc2c3ccccc3ccc2c2nc3c(ccc4ccccc43)c(-c3cc([N+](=O)[O-])ccc3N)c12`, the IC50 was determined as 6.01 µM.

For `Cc1nc2c3ccccc3ccc2c2nc3c(ccc4ccccc43)c(-c3ccccc3S)c12`, half-maximal inhibition (IC50) required 1.42 µM.

Compound `Cc1nc2c3ccccc3ccc2c2nc3c(ccc4ccccc43)c(-c3cccc4ccccc34)c12` came in with an IC50 of 20.8 µM.

On to `Cc1nc2c3ccccc3ccc2c2nc3c(ccc4ccccc43)c(-c3cccnc3)c12`, for which the IC50 was determined as 34.2 µM.

`Cc1nc2c3ccccc3ccc2c2nc3c(ccc4ccccc43)c(-c3cc(O)nc4ccccc34)c12` registered an IC50 of 4.63 µM.

As to `Cc1nc2c3ccccc3ccc2c2nc3c(ccc4ccccc43)c(-c3nccnc3N)c12`, the IC50 worked out at 3.56 µM.

The compound `COc1cccc2c1C(=O)c1c(O)c3c(c(O)c1C2=O)C[C@@](O)(C(=O)CO)C[C@@H]3O[C@H]1C[C@H](N)[C@H](O)[C@H](C)O1` [DOXORUBICIN] displayed an IC50 of 8.7 µM.

In another assay the test system is HeLa. Kind of assay: Cytotoxicity against human HeLa cells after 48 hrs by MTT assay. Type of assay: functional, cell-based.
Conditions: not given
The compound `Cc1nc2c3ccccc3ccc2c2nc3c(ccc4ccccc43)c(-c3ccccc3N)c12` yielded an IC50 of 16.2 µM.

Compound `Cc1nc2c3ccccc3ccc2c2nc3c(ccc4ccccc43)c(-c3cc([N+](=O)[O-])ccc3N)c12` gave an IC50 of 5.77 µM.

As to `Cc1nc2c3ccccc3ccc2c2nc3c(ccc4ccccc43)c(-c3ccccc3S)c12`, the IC50 came out at 3.19 µM.

Compound `Cc1nc2c3ccccc3ccc2c2nc3c(ccc4ccccc43)c(-c3cccc4ccccc34)c12` displayed an IC50 of 14.9 µM.

Turning to `Cc1nc2c3ccccc3ccc2c2nc3c(ccc4ccccc43)c(-c3cccnc3)c12`, the midpoint of inhibition, the IC50, lay at 3.86 µM.

For the compound `Cc1nc2c3ccccc3ccc2c2nc3c(ccc4ccccc43)c(-c3cc(O)nc4ccccc34)c12`, the IC50 is 4.88 µM.

As for `Cc1nc2c3ccccc3ccc2c2nc3c(ccc4ccccc43)c(-c3nccnc3N)c12`, the IC50 came out at 1.21 µM.

In the case of `COc1cccc2c1C(=O)c1c(O)c3c(c(O)c1C2=O)C[C@@](O)(C(=O)CO)C[C@@H]3O[C@H]1C[C@H](N)[C@H](O)[C@H](C)O1` [DOXORUBICIN], it took 6.3 µM to reach half-maximal inhibition (IC50).

System in another assay: not listed separately
Nature of the assay: Antioxidant activity assessed as ABTS radical scavenging activity after 30 mins by spectrophotometry. Type of assay: functional.
Conditions: not given
Consider `Cc1nc2c3ccccc3ccc2c2nc3c(ccc4ccccc43)c(-c3ccccc3N)c12`, for which the IC50 turned out to be 95.4 µg/mL (≈ 219 µM).

With `Cc1nc2c3ccccc3ccc2c2nc3c(ccc4ccccc43)c(-c3cc([N+](=O)[O-])ccc3N)c12`, the IC50 worked out at 93.1 µg/mL (≈ 194 µM).

As for `Cc1nc2c3ccccc3ccc2c2nc3c(ccc4ccccc43)c(-c3ccccc3S)c12`, the IC50 worked out at 89 µg/mL (≈ 197 µM).

Consider `Cc1nc2c3ccccc3ccc2c2nc3c(ccc4ccccc43)c(-c3cccc4ccccc34)c12`, for which the IC50 is 110.5 µg/mL (≈ 235 µM).

Take `Cc1nc2c3ccccc3ccc2c2nc3c(ccc4ccccc43)c(-c3cccnc3)c12`: the IC50 amounted to 98.2 µg/mL (≈ 233 µM).

In the case of `Cc1nc2c3ccccc3ccc2c2nc3c(ccc4ccccc43)c(-c3cc(O)nc4ccccc34)c12`, the IC50 worked out at 92.1 µg/mL (≈ 189 µM).

For the compound `Cc1nc2c3ccccc3ccc2c2nc3c(ccc4ccccc43)c(-c3nccnc3N)c12`, the IC50 is 81.7 µg/mL (≈ 187 µM).

As for `COc1ccc(O)c(C(C)(C)C)c1.COc1ccc(O)cc1C(C)(C)C` [BUTYLATED HYDROXYANISOLE], the IC50 is 96.8 µg/mL.

System in a further assay: not listed separately
Nature of the assay: Antioxidant activity assessed as hydroxyl radical scavenging activity after 15 mins by spectrophotometry.
Conditions: not given
Format: functional.
Take `Cc1nc2c3ccccc3ccc2c2nc3c(ccc4ccccc43)c(-c3ccccc3N)c12`: the IC50 was 45.6 µg/mL (≈ 105 µM).

Regarding `Cc1nc2c3ccccc3ccc2c2nc3c(ccc4ccccc43)c(-c3cc([N+](=O)[O-])ccc3N)c12`, the IC50 is 43.3 µg/mL (≈ 90.1 µM).

Turning to `Cc1nc2c3ccccc3ccc2c2nc3c(ccc4ccccc43)c(-c3ccccc3S)c12`, the IC50 stood at 49.6 µg/mL (≈ 110 µM).

For the compound `Cc1nc2c3ccccc3ccc2c2nc3c(ccc4ccccc43)c(-c3cccc4ccccc34)c12`, the IC50 is 64.3 µg/mL (≈ 137 µM).

Regarding `Cc1nc2c3ccccc3ccc2c2nc3c(ccc4ccccc43)c(-c3cccnc3)c12`, the IC50 is 63.6 µg/mL (≈ 151 µM).

With `Cc1nc2c3ccccc3ccc2c2nc3c(ccc4ccccc43)c(-c3cc(O)nc4ccccc34)c12`, the IC50 was 44.8 µg/mL (≈ 91.9 µM).

Regarding `Cc1nc2c3ccccc3ccc2c2nc3c(ccc4ccccc43)c(-c3nccnc3N)c12`, the IC50 turned out to be 47.8 µg/mL (≈ 109 µM).

Consider `COc1ccc(O)c(C(C)(C)C)c1.COc1ccc(O)cc1C(C)(C)C` [BUTYLATED HYDROXYANISOLE], for which the IC50 worked out at 75.7 µg/mL.

System in a further assay: not listed separately
Kind of assay: Antioxidant activity assessed as superoxide anion radical scavenging activity after 90 seconds by formazan method.
Conditions: not given
Type of assay: functional.
For `Cc1nc2c3ccccc3ccc2c2nc3c(ccc4ccccc43)c(-c3ccccc3N)c12`, the IC50 stood at 124.6 µg/mL (≈ 286 µM).

With `Cc1nc2c3ccccc3ccc2c2nc3c(ccc4ccccc43)c(-c3cc([N+](=O)[O-])ccc3N)c12`, the IC50 was 110.1 µg/mL (≈ 229 µM).

In the case of `Cc1nc2c3ccccc3ccc2c2nc3c(ccc4ccccc43)c(-c3ccccc3S)c12`, the IC50 was found to be 158.3 µg/mL (≈ 350 µM).

Turning to `Cc1nc2c3ccccc3ccc2c2nc3c(ccc4ccccc43)c(-c3cccc4ccccc34)c12`, the IC50 is 179.3 µg/mL (≈ 381 µM).

In the case of `Cc1nc2c3ccccc3ccc2c2nc3c(ccc4ccccc43)c(-c3cccnc3)c12`, the IC50 turned out to be 156.1 µg/mL (≈ 370 µM).

Turning to `Cc1nc2c3ccccc3ccc2c2nc3c(ccc4ccccc43)c(-c3cc(O)nc4ccccc34)c12`, the IC50 came to 147.7 µg/mL (≈ 303 µM).

Turning to `Cc1nc2c3ccccc3ccc2c2nc3c(ccc4ccccc43)c(-c3nccnc3N)c12`, the IC50 turned out to be 133.9 µg/mL (≈ 306 µM).

With `COc1ccc(O)c(C(C)(C)C)c1.COc1ccc(O)cc1C(C)(C)C` [BUTYLATED HYDROXYANISOLE], the IC50 stood at 79.6 µg/mL.

Another assay relates to Radical scavenging activity. Nature of the assay: Antioxidant activity assessed as DPPH radical scavenging activity.
Conditions: not given
Format: functional.
Consider `Cc1nc2c3ccccc3ccc2c2nc3c(ccc4ccccc43)c(-c3ccccc3N)c12`, for which the IC50 was 17.5 µg/mL (≈ 40.2 µM).

For the compound `Cc1nc2c3ccccc3ccc2c2nc3c(ccc4ccccc43)c(-c3cc([N+](=O)[O-])ccc3N)c12`, the IC50 is 11.3 µg/mL (≈ 23.5 µM).

Regarding `Cc1nc2c3ccccc3ccc2c2nc3c(ccc4ccccc43)c(-c3ccccc3S)c12`, the IC50 came to 10.2 µg/mL (≈ 22.5 µM).

In the case of `Cc1nc2c3ccccc3ccc2c2nc3c(ccc4ccccc43)c(-c3cccc4ccccc34)c12`, the IC50 came out at 26.1 µg/mL (≈ 55.5 µM).

Turning to `Cc1nc2c3ccccc3ccc2c2nc3c(ccc4ccccc43)c(-c3cccnc3)c12`, the IC50 amounted to 16.9 µg/mL (≈ 40.1 µM).

As for `Cc1nc2c3ccccc3ccc2c2nc3c(ccc4ccccc43)c(-c3cc(O)nc4ccccc34)c12`, the IC50 turned out to be 14.1 µg/mL (≈ 28.9 µM).

`Cc1nc2c3ccccc3ccc2c2nc3c(ccc4ccccc43)c(-c3nccnc3N)c12`: the half-maximal inhibitory concentration (IC50) turned out to be 12 µg/mL (≈ 27.4 µM).

For `COc1ccc(O)c(C(C)(C)C)c1.COc1ccc(O)cc1C(C)(C)C` [BUTYLATED HYDROXYANISOLE], the IC50 is 9.7 µg/mL.
